Reference: patent US20080045514A1 (Cytovia, Inc., priority 2006, published 2008)

What was measured:
Format in all cases: cell-based
[1] = test system: human cancer cell line H1299; test: Caspase cascade activation (EC50), H1299; conditions: NCI-H1299, H1299 cells, read-out: caspase potency (EC50) H1299
Protocol: (§1) Human breast cancer cell lines T-47D, human hepatocellular carcinoma cell line SNU398, human colon carcinoma cell line HCT116, human cancer cell line H1299, human Burkitt's lymphoma cell line Namalwa, human lymphoma cell line Raji, and human B cell lymphoblastoid cell line Ramos were grown according to media component mixtures designated by American Type Culture Collection+10% FCS (Invitrogen Corporation), in a 5% CO2-95% humidity incubator at 37° C. T-47D and H1299 cells were maintained at a cell density between 50 and 80% confluency at a cell density of 0.1 to 0.6×10^6 cells/mL. Cells were harvested at 600×g and resuspended at 0.65×10^6 cells/mL into appropriate media+10% FCS. An aliquot of 22.5 μL of cells was added to a well of a 384-well microtiter plate containing 2.5 μL of a 10% DMSO in RPMI-1640 media solution containing 0.16 to 100 μM of 3-(2-chlorophenyl)-6-(3,4-methylenedioxyphenyl)-7H-[1,2,4]triazolo[3,4-b][1,3,4]thiadiazine or other test compound (0.016 to 10 μM final). An aliquot of 22.5 μL of cells was added to a well of a 384-well microtiter plate containing 2.5 μL of a 10% DMSO in RPMI-1640 media solution without test compound as the control sample. The samples were mixed by agitation and then incubated at 37° C. for 48 h in a 5% CO2-95% humidity incubator. After incubation, the samples were removed from the incubator and 25 μL of a solution containing 14 μM of N—(Ac-DEVD)-N′-ethoxycarbonyl-R110 (SEQ ID No.:1) fluorogenic substrate (Cytovia, Inc.; WO99/18856), 20% sucrose (Sigma), 20 mM DTT (Sigma), 200 mM NaCl (Sigma), 40 mM Na PIPES buffer pH 7.2 (Sigma), and 500 μg/mL lysolecithin (Calbiochem) was added. The samples were mixed by agitation and incubated at room temperature. Using a fluorescent plate reader (Model SPECTRAfluor Plus, Tecan), an initial reading (T=0) was made approximately 1-2 min after addition of the substrate solution, employing excitation at 485 nm and emission at 530 nm, to determine the background fluorescence of the control sample. After the 3 h incubation, the samples were read for fluorescence as above (T=3 h). Calculation: The Relative Fluorescence Unit values (RFU) were used to calculate the sample readings as follows: RFU(T=3H)−Control RFU(T=0)=Net RFU(T=3h) The activity of caspase cascade activation was determined by the ratio of the net RFU value for 3-(2-chlorophenyl)-6-(3,4-methylenedioxyphenyl)-7H-[1,2,4]triazolo[3,4-b][1,3,4]thiadiazine (Example P) or other test compound to that of control samples. The EC50 (nM) was determined by a sigmoidal dose-response calculation (Prism 3.0, GraphPad Software Inc.).

[2] = test system: human breast cancer cell line T-47D; test: Caspase cascade activation (EC50), T-47D; conditions: Homo sapiens; T47D cells; caspase cascade activation; read-out: caspase potency (EC50) T47D
Method in brief: (§2)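 Test compound (0.016–10 μM final) is incubated with cells for 48 h at 37 °C. Caspase-3-like activity is measured by 3 h room-temperature cleavage of DEVD-R110 in PIPES pH 7.2 lysis buffer, with EC50 from sigmoidal fitting of background-corrected RFU relative to control.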

[3] = test system: human Burkitt's lymphoma cell line Namalwa; test: Caspase cascade activation (EC50), Namalwa; conditions: Homo sapiens, Burkitts lymphoma cell; Namalwa cells; caspase cascade activation; read-out: caspase potency (EC50) Namalwa
Method in brief: as §2

[4] = test system: human hepatocellular carcinoma cell line SNU398; test: Caspase cascade activation (EC50), SNU398; conditions: Homo sapiens, SNU-398; SNU398 cells; caspase cascade activation; read-out: caspase potency (EC50) SNU398
Method in brief: as §2

[5] = test system: human B cell lymphoblastoid cell line Ramos; test: Caspase cascade activation (EC50), Ramos; conditions: Homo sapiens, RAMOS cells, read-out: caspase potency (EC50) RAMOS
Protocol: as §1

[6] = test system: human colon carcinoma cell line HCT116; test: Caspase cascade activation (EC50), HCT116; conditions: Homo sapiens, HCT-116; HCT116 cells; caspase cascade activation; read-out: caspase potency (EC50) HCT116
Method in brief: as §2

[7] = test system: human lymphoma cell line Raji; test: Caspase cascade activation (EC50), Raji; conditions: Homo sapiens, RAJI cells, read-out: caspase potency (EC50) RAJI
Protocol: as §1

| EC50 [1] | EC50 [2] | EC50 [3] | EC50 [4] | EC50 [5] | EC50 [6] | EC50 [7] | Compound |
| --- | --- | --- | --- | --- | --- | --- | --- |
| 2730 nM | 2420 nM |  |  |  |  |  | COc1ccc(C2=Nn3c(nnc3-c3ccc(C)cc3)SC2)cc1OC [A, 3-(4-Methylphenyl)-6-(3,4-dimethoxyphenyl)-7H-[1,2,4]triazolo[3,4-b][1,3,4]thiadiazine] |
| 2100 nM | 1880 nM |  |  |  |  |  | COc1ccc(C2=Nn3c(nnc3-c3ccc(Cl)cc3)SC2)cc1OC [E, 3-(4-Chlorophenyl)-6-(3,4-dimethoxyphenyl)-7H-[1,2,4]triazolo[3,4-b][1,3,4]thiadiazine] |
| 2490 nM | 500 nM | 426 nM | 390 nM | 447 nM | 546 nM | 507 nM | COc1cccc(-c2nnc3n2N=C(c2ccc4c(c2)OCO4)CS3)c1 [Example A1, 3-(3-Methoxyphenyl)-6-(3,4-methylenedioxyphenyl)-7H-[1,2,4]triazolo[3,4-b][1,3,4]thiadiazine] |
| 1710 nM | 1420 nM |  | 930 nM |  | 1310 nM |  | COc1cccc(-c2nnc3n2N=C(c2ccc4ccccc4c2)CS3)c1 [Example B1, 3-(3-Methoxyphenyl)-6-(2-naphthyl)-7H-[1,2,4]triazolo[3,4-b][1,3,4]thiadiazine] |
| 106 nM | 175 nM | 106 nM | 30 nM |  | 40 nM |  | CCOc1ccc(C2=Nn3c(nnc3-c3ccccc3OC)SC2)cc1 [Example B2, 3-(2-Methoxyphenyl)-6-(4-ethoxyphenyl)-7H-[1,2,4]triazolo[3,4-b][1,3,4]thiadiazine] |
| 2710 nM | 2300 nM |  | 778 nM |  | 1500 nM |  | CCOc1cccc(-c2nnc3n2N=C(c2ccc(OC)cc2)CS3)c1 [Example D1, 3-(3-Ethoxyphenyl)-6-(4-methoxyphenyl)-7H-[1,2,4]triazolo[3,4-b][1,3,4]thiadiazine] |
| 2640 nM | 2580 nM |  |  |  |  |  | CCOc1ccc(-c2nnc3n2N=C(c2ccc(O)c(O)c2)CS3)cc1 [Example F1, 3-(4-Ethoxyphenyl)-6-(3,4-dihydroxyphenyl)-7H-[1,2,4]triazolo[3,4-b][1,3,4]thiadiazine] |
| 2010 nM | 553 nM |  | 41 nM |  | 161 nM |  | CCOc1ccc(C2=Nn3c(nnc3-c3ccc(Cl)cc3Cl)SC2)cc1 [Example H1, 3-(2,4-Dichlorophenyl)-6-(4-ethoxyphenyl)-7H-[1,2,4]triazolo[3,4-b][1,3,4]thiadiazine] |
| > 1000 nM | > 1000 nM | > 1000 nM | > 1000 nM | 542 nM | > 1000 nM | > 1000 nM | CCOc1ccc(-c2nnc3n2N=C(c2ccc4c(c2)OCO4)CS3)cc1 [Example H2, 3-(4-Ethoxyphenyl)-6-(3,4-methylenedioxyphenyl)-7H-[1,2,4]triazolo[3,4-b][1,3,4]thiadiazine] |
| 1380 nM | 278 nM | 221 nM | 172 nM | 150 nM | 254 nM | 171 nM | Clc1ccc(-c2nnc3n2N=C(c2ccc4c(c2)OCO4)CS3)c(Cl)c1 [Example I1, 3-(2,4-Dichlorophenyl)-6-(3,4-methylenedioxyphenyl)-7H-[1,2,4]triazolo[3,4-b][1,3,4]thiadiazine] |
| 2590 nM | 2870 nM |  |  |  |  |  | Clc1ccc(-c2nnc3n2N=C(c2ccccc2)CS3)c(Cl)c1 [Example J1, 3-(2,4-Dichlorophenyl)-6-phenyl-7H-[1,2,4]triazolo[3,4-b][1,3,4]thiadiazine] |
| > 10000 nM | > 10000 nM | > 1000 nM | 5600 nM | > 1000 nM | > 10000 nM | > 1000 nM | CC(C)Oc1cccc(-c2nnc3n2N=C(c2ccc4c(c2)OCO4)CS3)c1 [Example R1, 3-(3-Isopropyloxyphenyl)-6-(3,4-methylenedioxyphenyl)-7H-[1,2,4]triazolo[3,4-b][1,3,4]thiadiazine] |
|  | 1320 nM | 321 nM | 1040 nM | 463 nM | > 10000 nM | 622 nM | COc1cc(-c2nnc3n2N=C(c2ccc(F)cc2)CS3)cc(OC)c1OC [Example V1, 3-(3,4,5-Trimethoxyphenyl)-6-(4-fluorophenyl)-7H-[1,2,4]triazolo[3,4-b][1,3,4]thiadiazine] |
|  | 276 nM | 153 nM | 111 nM | 78 nM | 130 nM | 72 nM | COc1cc(-c2nnc3n2N=C(c2ccc(Cl)cc2)CS3)cc(OC)c1OC [Example W1, 3-(3,4,5-Trimethoxyphenyl)-6-(4-chlorophenyl)-7H-[1,2,4]triazolo[3,4-b][1,3,4]thiadiazine] |
|  | 2640 nM | 2510 nM | 2650 nM | 2510 nM | 2480 nM | 3410 nM | COc1cc(-c2nnc3n2N=C(c2cccc(Br)c2)CS3)cc(OC)c1OC [Example X1, 3-(3,4,5-Trimethoxyphenyl)-6-(3-bromophenyl)-7H-[1,2,4]triazolo[3,4-b][1,3,4]thiadiazine] |
|  | 556 nM | 139 nM | 81 nM | 99 nM | 119 nM | 127 nM | COc1cc(-c2nnc3n2N=C(c2ccc4ccccc4c2)CS3)cc(OC)c1OC [Example Y1, 3-(3,4,5-Trimethoxyphenyl)-6-(2-naphthyl)-7H-[1,2,4]triazolo[3,4-b][1,3,4]thiadiazine] |
|  | 284 nM | 200 nM | 101 nM | 219 nM | 240 nM | 176 nM | COc1cc(-c2nnc3n2N=C(c2ccc(O)c(O)c2)CS3)cc(OC)c1OC [Example Z1, 3-(3,4,5-Trimethoxyphenyl)-6-(3,4-dihydroxyphenyl)-7H-[1,2,4]triazolo[3,4-b][1,3,4]thiadiazine] |
| 1820 nM | 2490 nM |  | 1010 nM |  | 1580 nM |  | CCOc1ccc(C2=Nn3c(nnc3-c3ccc(OC)cc3)SC2)cc1 [I, 3-(4-Methoxyphenyl)-6-(4-ethoxyphenyl)-7H-[1,2,4]triazolo[3,4-b][1,3,4]thiadiazine] |
| 1000 nM | 1340 nM |  | 129 nM |  | 279 nM |  | CCOc1ccc(C2=Nn3c(nnc3-c3ccccc3Cl)SC2)cc1 [O, 3-(2-Chlorophenyl)-6-(4-ethoxyphenyl)-7H-[1,2,4]triazolo[3,4-b][1,3,4]thiadiazine] |
| 5140 nM | 5350 nM |  |  |  |  |  | Clc1ccccc1-c1nnc2n1N=C(c1ccc(Br)cc1)CS2 [Q, 3-(2-Chlorophenyl)-6-(4-bromophenyl)-7H-[1,2,4]triazolo[3,4-b][1,3,4]thiadiazine] |
| 3570 nM | 5540 nM |  |  |  |  |  | Cc1cccc(-c2nnc3n2N=C(c2ccc4ccccc4c2)CS3)c1 [U, 3-(3-Methylphenyl)-6-(2-naphthyl)-7H-[1,2,4]triazolo[3,4-b][1,3,4]thiadiazine] |
| 2330 nM | 2810 nM |  | 331 nM |  | 693 nM |  | CCOc1ccc(C2=Nn3c(nnc3-c3cccc(OC)c3)SC2)cc1 [Z, 3-(3-Methoxyphenyl)-6-(4-ethoxyphenyl)-7H-[1,2,4]triazolo[3,4-b][1,3,4]thiadiazine] |
